Where two headings read alike, the source gives them in different places.

The test system of series [1] is idiopathic pulmonary fibrosis. Conditions: cited from earlier work.
The next series addresses LPAR1 (Homo sapiens, UniProt Q92633). The experiment in a line: BRET assay (G protein activation and βArrestin 2 biosensors). Format: cell-based. On the set-up: expressed in transfected cells; host or cells: HEK293 (transient, PEI). As for the experimental part: Using polyethylenimine (PEI) transfection agent at a 3:1 ratio, HEK293 cells were co-transfected in suspension with hLPAR1 and one of the following biosensors: G protein activation sensors (Gαi2, Gα13, and Gαq) and the βArrestin 2-PM recruitment biosensor (+GRK2). Cells were directly seeded in 96-well plates immediately following transfection at a density of 35,000 cells/well. 48 hours post-transfection, BRET experiments were performed in both agonist and allosteric/antagonist mode. Using a plate washer, culture medium was aspirated and replaced with 30 μl of Hank's Balanced Salt Solution buffer (HBSS). Plates were equilibrated at room temperature for 60 minutes. For agonist testing, serial dilutions of the antibodies were performed in PBS and then added to each well. Antibodies were assayed at 12 concentrations in technical duplicates. Small molecules were added to each relevant well. Small molecules were assayed at 22 concentrations with each biosensor. Cells were then incubated with the antibodies or small molecules at room temperature for 60 or 10 minutes, respectively. 10 μl of 10 μM e-Coelenterazine Prolume Purple (Nanolight) was then added to each well. Cells were incubated at room temperature for an additional 10 minutes. BRET readings were then collected with a 0.4 sec integration time on a plate reader (filters: 400 nm/70 nm, 515 nm/20 nm). For allosteric testing (after agonist testing), an EC75 of the endogenous ligand (oleoyl-LPA) was added to each well already containing antibody or small molecule. Cells were incubated at room temperature for an additional 10 minutes. BRET readings were then collected with a 0.4 sec integration time on a plate reader (filters: 400 nm/70 nm, 515 nm/20 nm). BRET signals were determined by calculating the ratio of light emitted by GFP-acceptor (515 nm) over light emitted by luciferase-donor (400 nm). All BRET ratios were standardized with pre-established BRET values for positive and negative controls. The standardized BRET ratio is referred to as universal BRET (uBRET). Resulting dose-response curves were fitted using the three- or four-parameter logistic non-linear regression model in GraphPad Prism 9.
The inhibition characteristics of Antibody 12 were investigated by Bioluminescence Resonance Energy Transfer (BRET, method 1.15) and compared to a small molecule LPAR1 inhibitor of the prior art (BMS-986020), see FIG. 13. The upper lines are values recorded with LPA present and the lower lines are values recorded with LPA not present. […] This can only happen if the ligand (LPA) is also interacting with the receptor at the same time to enable some signalling. […]

Series [2] relates to renal fibrosis after UUO surgery. Briefly: Unilateral ureteral obstruction (UUO) efficacy model of renal fibrosis. Format: in vivo, Hartley guinea pigs. As for the experimental part:
Unilateral ureteral obstruction (UUO) is a well-characterized disease model for renal fibrosis. The UUO model encompasses key pathophysiological features of chronic kidney disease; tubular necrosis and inflammatory cell infiltration within a relatively short period.
Two unilateral ureteral obstruction (UUO) model efficacy studies were carried out in six-week old female Hartley guinea pigs. On Day 0, UUO surgery was performed. BMS-986020 was administered orally at a dose level of 30 mg/kg in a volume of 5 mL/kg twice daily at from Day −1 to 9. Isotype control and anti-LPAR1 antibody was intraperitoneally administered at a dose level of 6 mg/kg (low) or 20 mg/kg (high) in a volume of 10 mL/kg at Day −1, Day 0, Day 3 and Day 6. The viability, clinical signs, behaviour and individual body weight was monitored daily.
The animals were sacrificed at Day 10. The ligated left kidney and right kidney weight were measured at sacrifice.
Hydroxyproline is an amino acid, making up around 14% of collagen and acts as an important indicator of the severity of fibrosis. To quantify kidney hydroxyproline content, frozen posterior right section of left kidney samples were processed by an alkaline-acid hydrolysis method. AC buffer (2.2M acetic acid/0.48M citric acid) was added to the samples, followed by centrifugation to collect the supernatant. A standard curve of hydroxyproline was constructed with serial dilutions of trans-4-hydroxy-L-proline (Sigma-Aldrich, USA) starting at 16 μg/mL. The prepared samples and standards were mixed with chloramine T solution (Nacalai Tesque Inc., Japan) and incubated for 25 minutes at room temperature. The samples were then mixed with Ehrlich's solution and heated at 65° C. for 20 minutes to develop the colour. After samples were cooled on ice and centrifuged to remove precipitates, the optical density of each supernatant was measured at 560 nm. The concentrations of hydroxyproline were calculated from the hydroxyproline standard curve. Protein concentrations of kidney samples were determined using a BCA protein assay kit (Thermo Fisher Scientific, USA) and used to normalize the calculated hydroxyproline values. Kidney hydroxyproline contents were expressed as μg per mg protein.
The left kidney was fixed in Bouin's solution and embedded in paraffin. For PAS staining, sections were cut from paraffin blocks and stained with Schiff's reagent (FUJIFILM Wako pure chemical corporation, Japan) according to the manufacturer's instructions. To visualize collagen deposition, kidney sections were stained using picro-Sirius red solution (FUJIFILM Wako pure chemical corporation). For quantification of interstitial and medulla fibrosis area, bright field images in the corticomedullary region were captured using a digital camera (DFC295) at 200-fold magnification, and the positive areas in 5 fields/section were measured using ImageJ software (National Institute of Health, USA).

Series [3] has as its system hepatic bile acid efflux transporters (e.g., BSEP, MRP3 and MRP4). Conditions: cited from earlier work.
The next series relates to diabetic nephropathy. Conditions: 8 weeks, cited from earlier work.
The target of series [4] is T1, human LPAR1 (Homo sapiens, UniProt Q92633, Q286A).
T1 construct: HA; expressed in transfected cells; host or cells: CHO-K1 (transient)
T1 sequence (Q92633 whole entry Q286A): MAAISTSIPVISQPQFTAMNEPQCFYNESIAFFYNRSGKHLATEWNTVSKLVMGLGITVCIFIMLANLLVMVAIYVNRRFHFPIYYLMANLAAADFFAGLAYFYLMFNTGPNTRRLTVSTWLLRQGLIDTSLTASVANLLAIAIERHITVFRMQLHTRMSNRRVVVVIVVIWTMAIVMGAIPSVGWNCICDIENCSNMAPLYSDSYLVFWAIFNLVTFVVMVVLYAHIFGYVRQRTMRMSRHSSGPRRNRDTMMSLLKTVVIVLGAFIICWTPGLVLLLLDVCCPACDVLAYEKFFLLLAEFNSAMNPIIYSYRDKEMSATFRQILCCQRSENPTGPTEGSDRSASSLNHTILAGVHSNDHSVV
Briefly: In vitro epitope analysis: transient-transfection CIFAT on human LPAR1 with residue substitutions to alanine. Type of series: binding. Conditions: human LPAR1 position 286 (Q, ECD3) substituted to alanine. Here is the method: (§1) CHO-K1 cells were seeded in clear 96-well plates at 20,000 cells per 200 μL full growth medium and incubated for 24 hours at 37° C. The following day, in a sterile tube, 0.0309 uL/well PEI (Generon, MW 160,000) was diluted into 10 uL/well transfection medium (DMEM supplemented with 2 mM L-glutamine and Penicillin-Streptomycin). The diluted PEI was added to 100 ng/well DNA encoding the target protein (human LPAR1 (SEQ ID NO: 62) unless otherwise stated), before vortexing immediately and incubating the mixture for 10 minutes at room temperature. 200 μL/well full growth medium was added to the PEI-DNA mixture, then medium in wells was taken off and 200 ul full growth medium/PEI/DNA mixture was added in the wells of the adherent cell plate. […] After washing and cell fixation with 4% PFA, the binding of the antibodies was detected using a goat anti-human Alexa Fluor 488 detection antibody (Invitrogen), incubated for 1 hour at room temperature. Fluorescence at 488 nm was measured using a BMG LABTECH ClarioStar plate reader and microscopy images were taken at 10× magnification.
(§2) Based on the epitope analysis presented in FIGS. 3 and 4, constructs were designed to test the important residues/interaction regions predicted in silico. […] CHO-K1 cells were transiently transfected with these plasm ids and the binding of an anti-LPAR1 mAb assessed to each of these receptor variants using protocol 1.11. […]

The target of series [5] is T2, human LPAR1 (Homo sapiens, UniProt Q92633, N35A).
T2 construct: HA; expressed in transfected cells; host or cells: CHO-K1 (transient)
T2 sequence (Q92633 whole entry N35A): as the sequence (Q92633 whole entry Q286A) above, with N35A, A286Q counted along it
The description is as above. Format: binding. Conditions: human LPAR1 position 35 (N, N-terminus) substituted to alanine; binding of mAb with VH SEQ ID NO: 369, VL SEQ ID NO: 39. Here is the method:
as §1, §2

Where [6] appears, read: Study 1, BMS-986020 30 mg/kg oral twice daily, antibody 20 mg/kg i.p., Day 10.

Sequence of LPAR1 (Q92633 whole entry): as the sequence (Q92633 whole entry Q286A) above, with A286Q counted along it

Broadly, the inhibition is the relative decrease from the control value, in per cent. On to `Cc1noc(-c2ccc(-c3ccc(C4(C(=O)O)CC4)cc3)cc2)c1NC(=O)O[C@H](C)c1ccccc1` [BMS-986020], for which, in series [1] (compound-specific, not mediated via antagonism of LPAR1), the hepatobiliary toxicity result is listed as “off-target hepatobiliary toxicity”. In series [1] (human, in vivo), the “efficacy in patients with idiopathic pulmonary fibrosis” value is “showed efficacy”. Besides, the mode of inhibition entry at LPAR1 (G13 biosensor) is listed as “competitive inhibitor”. Moreover, the inhibition at LPAR1 (interaction of G-protein G13 with the GPCR, in the presence of LPA) is 100%. In addition, in series [2] (setting [6]), the “cortical fibrosis (histological picrosirius staining)” value was “reduced cortical fibrosis” and the kidney hydroxyproline entry is “No observable difference”. For the same molecule, the histological picrosirius staining entry in series [2] (Study 2) is given as “No observable difference”. For the same molecule, in series [2] (Study 2, BMS-986020 30 mg/kg oral vs vehicle, antibody 20 mg/kg (high) i.p. vs isotype antibody), the kidney hydroxyproline result is on record as “trend towards reduced hydroxyproline”. Also, the “binding to hepatic bile acid efflux transporters” value in series [3] is “off-target binding”.

On to `Cc1noc(-c2ccc(CSCCC(=O)O)cc2)c1NC(=O)OC(C)c1ccccc1Cl` (stereo not shown) [Ki16425], for which, in the series on diabetic nephropathy (db/db (moderate model), Li et al. (2017)), the “24 h albuminuria vs untreated controls, reduction” value was around 30%.

In the case of `Cc1noc(-c2ccc(-c3ccc(CC(=O)O)cc3)cc2)c1NC(=O)O[C@H](C)c1ccccc1` [AM095], the “24 h albuminuria vs untreated controls, reduction” value in the series on diabetic nephropathy (STZ-induced (early disease model), Lee J H et al. (2019)) was around 30% reduction.

B1: anti-LPAR1 mAb: mAb of the in vitro epitope analysis; VH of SEQ ID NO: 369 and VL of SEQ ID NO: 39 (antibody, V domains shown)
VH: QVQLVQSGSELKKPGASVKVSCKASGYTFTSSGISWVRQAPGQGLEWMGEILPRSGYTNYNQGFTGRFVFSADKSVSTAYLQISSLKAEDTAVYYCARDFASARYAMDYWGQGTTVTVSS
VL: SIQMTQSPSSLSASVGDRVTITCQASQSVRYNVAWYQQKPGKAPKLLIYYASNRYTGVPSRFSGSGSGTDFTFTISSLQPEDIATYFCQHHYSSPLTFGGGTKLEIK
modifications: REGION 1..120: note = >huVH4_Q61A97A99G104
As to B1, the Epitope residue entry with human LPAR1 [4] and with human LPAR1 [5] was “Inconclusive” each time.

(Values after patent US12599645B2, “Antibodies which bind to lysophosphatidic acid receptor 1 (LPAR1)” (DJS ANTIBODIES LTD, priority 2021, dated 2026).)
